The results in this text go back to BindingDB's records for doi:10.1021/jm00016a009 (Purdue University, 1995).

pEC50: −log10 of the molar value.

The nature of this assay: Effective concentration as Adenylate cyclase activity was measured in rat homogenate.
For the molecule `CCc1ccc2c(c1)[C@@H]1c3cc(O)c(O)cc3CC[C@H]1NC2` [(6aR,12bS)-2-Ethyl-5,6,6a,7,8,12b-hexahydro-benzo[a]phenanthridine-10,11-diol], the pEC50 was 6.21.
For `Oc1cc2c(cc1O)[C@H]1c3cc(-c4ccccc4)ccc3CN[C@@H]1CC2` [(6aR,12bS)-2-Phenyl-5,6,6a,7,8,12b-hexahydro-benzo[a]phenanthridine-10,11-diol], the negative logarithm of the EC50 (pEC50) was 8.00.
Take `Cc1ccc2c(c1)CN[C@@H]1CCc3cc(O)c(O)cc3[C@@H]21` [(6aR,12bS)-3-Methyl-5,6,6a,7,8,12b-hexahydro-benzo[a]phenanthridine-10,11-diol]: the negative-log EC50 (pEC50) is 6.87.
`CCCN1Cc2cc(C)ccc2[C@@H]2c3cc(O)c(O)cc3CC[C@H]21` [(6aR,12bS)-3-Methyl-6-propyl-5,6,6a,7,8,12b-hexahydro-benzo[a]phenanthridine-10,11-diol] showed a negative-log EC50 (pEC50) of 8.00.
The figure for `Cc1cccc2c1CN[C@@H]1CCc3cc(O)c(O)cc3[C@@H]21` [(6aR,12bS)-4-Methyl-5,6,6a,7,8,12b-hexahydro-benzo[a]phenanthridine-10,11-diol] is 6.82; for `Oc1ccc2c(c1)[C@@H]1c3cc(O)c(O)cc3CC[C@H]1NC2` [(6aR,12bS)-5,6,6a,7,8,12b-Hexahydro-benzo[a]phenanthridine-2,10,11-triol] it is 6.83; for `Oc1ccc2c(c1)CN[C@@H]1CCc3cc(O)c(O)cc3[C@@H]21` [(6aR,12bS)-5,6,6a,7,8,12b-Hexahydro-benzo[a]phenanthridine-3,10,11-triol] it is 6.89.

One may read the pEC50 as −log10 of the EC50, conventionally taken in molar units. A higher pEC50 goes with a small EC50.
